ChEMBL document CHEMBL5104159, “Synthesis and antitumor activity of a series of novel N-aryl-5-(2,2,2-trifluoroethoxy)-1,5-dihydro-2H-pyrrol-2-ones derivatives” (Bioorg Med Chem Lett, 2022)
Counter-ions that a name gives are not always drawn. Activity calls are given as the source filed them. The calls are words filed in the database; no cut-off is given here.

Tests used:
K562 [1] = assay: Antiproliferative activity against human K562 cells assessed as inhibition of cell growth; format: functional, cell-based
MDA-MB-231 = assay: Antiproliferative activity against human MDA-MB-231 cells assessed as inhibition of cell growth; format: functional, cell-based
A549 = assay: Antiproliferative activity against human A549 cells assessed as inhibition of cell growth; format: functional, cell-based
HeLa = assay: Antiproliferative activity against human HeLa cells assessed as inhibition of cell growth; format: functional, cell-based
K562 [2] = assay: Induction of cell cycle arrest in human K562 cells assessed as accumulation of cells at G1 phase at 10 uM by flow cytometry analysis (reference value: 73.3%); format: functional
K562 [3] = assay: Induction of cell cycle arrest in human K562 cells assessed as accumulation of cells at G2 phase at 10 uM by flow cytometry analysis (reference value: 5.38%); format: functional
K562 [4] = assay: Induction of cell cycle arrest in human K562 cells assessed as accumulation of cells at S phase at 10 uM by flow cytometry analysis (reference value: 21.32%); format: functional
K562 [5] = assay: Induction of apoptosis in human K562 cells assessed as viable cells at 10 uM by AnnexinV-FITC/propidium iodide staining based flow cytometric analysis (reference value: 86.4%); format: functional; conditions: read-out: Activity
K562 [6] = assay: Induction of apoptosis in human K562 cells assessed as early apoptotic cells at 10 uM by AnnexinV-FITC/propidium iodide staining based flow cytometric analysis (reference value: 2.56%); format: functional
K562 [7] = assay: Induction of apoptosis in human K562 cells assessed as late apoptotic cells at 10 uM by AnnexinV-FITC/propidium iodide staining based flow cytometric analysis (reference value: 5.1%); format: functional
K562 [8] = assay: Induction of apoptosis in human K562 cells assessed as dead cells at 10 uM by AnnexinV-FITC/propidium iodide staining based flow cytometric analysis (reference value: 5.94%); format: functional
[9] = Cytotoxicity against human L02 cells assessed as cell viability at 2 ug/ml relative to control; format: toxicity, cell-based; conditions: at 2 µg/mL, read-out: Activity
K562 [10] = assay: Induction of apoptosis in human K562 cells assessed as increase in FADD level at 100 uM measured after 48 hrs by human apoptosis array analysis; format: functional, cell-based
K562 [11] = assay: Induction of apoptosis in human K562 cells assessed as increase in pro-caspase 3 level at 100 uM measured after 48 hrs by human apoptosis array analysis; format: functional, cell-based
K562 [12] = assay: Induction of apoptosis in human K562 cells assessed as increase in cleaved caspase-3 level at 100 uM measured after 48 hrs by human apoptosis array analysis; format: functional, cell-based
K562 [13] = assay: Induction of apoptosis in human K562 cells assessed as increase in HTRA2/omi level at 100 uM measured after 48 hrs by human apoptosis array analysis; format: functional, cell-based
K562 [14] = assay: Induction of apoptosis in human K562 cells assessed as increase in SMAC/Diablo level at 100 uM measured after 48 hrs by human apoptosis array analysis; format: functional, cell-based
K562 [15] = assay: Induction of apoptosis in human K562 cells assessed as increase in Bax/Bcl-2 ratio at 100 uM measured after 48 hrs by human apoptosis array analysis; format: functional, cell-based

Row | SMILES | IC50 (K562 [1]) | IC50 (MDA-MB-231) | IC50 (A549) | IC50 (HeLa) | further results
1 | O=C1C=CC(OC(C(F)(F)F)C(F)(F)F)N1c1ccc(Cl)cc1 (stereo unspecified) | 4.48 µM | 2.41 µM | 4.3 µM | 1.89 µM | 
2 | COC(=O)c1ccc(N2C(=O)C=CC2OCC(F)(F)F)cc1 (stereo unspecified) | 14.7 µM | 12.1 µM | 8.17 µM | 5.7 µM | 
3 | COc1ccc(/C=C\c2cc(OC)c(OC)c(OC)c2)cc1O [COMBRETASTATIN A4] |  |  |  |  | Activity (K562 [2]): 21.92%; Activity (K562 [3]): 47.61%; Activity (K562 [4]): 30.46%; viability at 10 µM (K562 [5]): 32.7%; Activity (K562 [6]): 43.7%; Activity (K562 [7]): 22.2%; Activity (K562 [8]): 1.36%
4 | O=C1C=CC(OCC(F)(F)F)N1c1cc(F)cc(F)c1 (stereo unspecified) | 0.52 µM | 7.84 µM | 5 µM | 8.46 µM | viability at 2 ug/ml [9]: 66%; Activity (K562 [2]): 15.21%; Activity (K562 [3]): 54.21%; Activity (K562 [4]): 30.58%; viability at 10 µM (K562 [5]): 50%; Activity (K562 [6]): 25.5%; Activity (K562 [7]): 22.3%; Activity (K562 [8]): 2.26%
5 | O=C1C=CC(OCC(F)(F)F)N1c1ccc(Br)cc1 (stereo unspecified) | 3.27 µM | 7.57 µM | 6.96 µM | 7.06 µM | 
6 | O=C1C=CC(OCC(F)(F)F)N1c1ccccc1F (stereo unspecified) | 12 µM | 20.6 µM | 44.9 µM | 19.2 µM | 
7 | CCc1ccc(N2C(=O)C=CC2OCC(F)(F)F)cc1 (stereo unspecified) | 4.47 µM | 7.84 µM | 8.09 µM | 6.51 µM | 
8 | O=C1C=CC(OCC(F)(F)F)N1c1ccc(Cl)cc1F (stereo unspecified) | 6.21 µM | 6.1 µM | 6.63 µM | 8.32 µM | 
9 | O=C1C=CC(OCC(F)(F)F)N1c1cc(Cl)cc(Cl)c1 (stereo unspecified) | 1.64 µM | 2.43 µM | 1.63 µM | 5.92 µM | 
10 | CC(C)c1ccc(N2C(=O)C=CC2OCC(F)(F)F)cc1 (stereo unspecified) | 6.62 µM | 6.64 µM | 9.57 µM | 5.8 µM | 
11 | O=C1C=CC(OCC(F)(F)F)N1c1ccccc1 (stereo unspecified) | 24.6 µM | 15.3 µM | 23.4 µM | > 100 µM | 
12 | Cc1ccc(N2C(=O)C=CC2OCC(F)(F)F)cc1 (stereo unspecified) | 7.14 µM | 15.8 µM | 13.7 µM | 9.38 µM | 
13 | O=C1c2c(O)ccc(O)c2C(=O)c2c(NCCNCCO)ccc(NCCNCCO)c21 [MITOXANTRONE] | 0.14 µM |  | 0.07 µM | 0.04 µM | 
14 | COc1cccc2c1C(=O)c1c(O)c3c(c(O)c1C2=O)C[C@@](O)(C(=O)CO)C[C@@H]3O[C@H]1C[C@H](N)[C@H](O)[C@H](C)O1 [DOXORUBICIN HYDROCHLORIDE] | 0.34 µM |  | 0.15 µM | 1.07 µM | 
15 | O=C1C=CC(OCC(F)(F)F)N1c1ccc([N+](=O)[O-])cc1 (stereo unspecified) | 1.53 µM | 2.83 µM | 3.27 µM | 2.38 µM | 
16 | O=C1C=CC(OCC(F)(F)F)N1c1ccc(F)c(Cl)c1 (stereo unspecified) | 6.32 µM | 3.44 µM | 7.69 µM | 3.11 µM | viability at 2 ug/ml [9]: 58%
17 | CC(C)(C)c1ccc(N2C(=O)C=CC2OCC(F)(F)F)cc1 (stereo unspecified) | 0.07 µM | 1.86 µM | 8.5 µM | 18.1 µM | viability at 2 ug/ml [9]: 81%; Activity (K562 [2]): 18.84%; Activity (K562 [3]): 80.18%; Activity (K562 [4]): 0.98%; viability at 10 µM (K562 [5]): 41.5%; Activity (K562 [6]): 33.3%; Activity (K562 [7]): 22.8%; Activity (K562 [8]): 2.4%; Activity (K562 [10]): Active; Activity (K562 [11]): Active; Activity (K562 [12]): Active; Activity (K562 [13]): Active; Activity (K562 [14]): Active; Activity (K562 [15]): Active
18 | CC(C)NC1CC(=O)N(c2ccc(F)c(Cl)c2)C1OCC(F)(F)F (stereo unspecified) | 10.5 µM | > 100 µM | > 100 µM | 6.61 µM | viability at 2 ug/ml [9]: 102%
19 | O=C1C=CC(OCC(F)(F)F)N1c1ccc(C(F)(F)F)cc1 (stereo unspecified) | 13.1 µM | 2.3 µM | 8.39 µM | 36.2 µM | 
